{
  "source": "patent US20130059793A1",
  "about": "“EGF RECEPTOR MIMICKING PEPTIDES” (BOARD OF REGENTS, THE UNIVERSITY OF TEXAS SYSTEM, priority 2010, published 2013)",
  "key": {"cetuximab": {"test_system": "cetuximab", "assay": "Binding of synthetic peptides to cetuximab (ELISA-based, FIG. 3A, FIG. 4B)", "settings": "FIG. 4B (peptides plated at 10 μg/ml)", "text": "BSA served as an additional negative control, and the EGFR, as a positive control. […] Insertless phage served as a negative control. […] Bars represent mean±SEM.\n(§1) A representative experiment is depicted. […] Bars represent mean±SEM. […] (FIG. 4C) Effect of the synthetic peptides on HN5 tumor cells. […] Viability in the absence of peptide was set to 100%. […] Bars represent mean±SEM. […] Receptors were immunoprecipitated with antibodies against phosphorylated (p) pEGFR and were immunoblotted with anti-phosphotyrosine IgG.\n(§2) The EGFR served as an immobilized positive control, and BSA or control peptides (CVAAC) served as immobilized negative controls."}, "[1]": {"assay": "Nuclear magnetic resonance (NMR)-spectroscopy interactions", "assay_type": "binding"}, "HN5 tumor cells": {"test_system": "HN5 tumor cells", "assay": "Cell viability/proliferation, MTT assay, HN5", "assay_type": "cell-based, human", "parameters": "cell proliferation / viability: dose or concentration left out as unconfirmed", "procedure": "as §1\nTumor cell lines HN5, UMSCC 10A, GEO and EF43.fgf-4 were culture in standard conditions. Viability was assessed by MTT assays (Sigma) as described (Cardó-Vila et al., 2003). […] Samples were read at 570 nm.\nTumor cell lines HN5, UMSCC 10A, GEO and EF43.fgf-4 were maintained in high-glucose DMEM, supplemented with 10% heat-inactivated fetal bovine serum, 20 mM HEPES (pH 7.4), 100 IU/ml penicillin, 100 μg/ml streptomycin, and 4 mM glutamine at 5% CO2 at 37° C. EF43.fgf-4 were grown in G418 as described (Hajitou et al., 2006)."}, "EGFR": {"test_system": "EGFR", "assay": "EGF-induced EGFR autophosphorylation (immunoprecipitation, anti-phosphotyrosine blot)", "assay_type": "cell-based, human", "settings": "HN5 tumor cells, EGF 15 min, FIG. 4E", "text": "as §1"}, "ERK": {"test_system": "ERK", "assay": "EGF-induced phosphorylation of ERK in HN5 cells", "assay_type": "cell-based", "settings": "human HN5 head and neck cells", "text": "(§3) To dissect the downstream signal transduction cascade in this setting, proliferative, survival, and migratory pathways were examined."}, "AKT": {"test_system": "AKT", "assay": "EGF-induced phosphorylation of AKT in HN5 cells", "assay_type": "cell-based", "settings": "human HN5 head and neck cells", "text": "as §3"}, "p38": {"test_system": "p38", "assay": "EGF-induced phosphorylation of p38 in HN5 cells", "assay_type": "cell-based", "settings": "human HN5 head and neck cells", "text": "as §3"}, "[2]": {"test_system": "EF43.fgf-4-derived tumors", "assay": "Treatment of tumor-bearing mice with peptides and peptidomimetics, tumor volume", "assay_type": "in vivo", "settings": "at the end of two weeks; Balb/c mice, EF43.fgf-4 tumors; 750 μg/mouse/dose for 5 days; mean±SEM", "text": "FIGS. 5A-B: CVRAC-targeted phage homes to tumor. (FIG. 5A) Targeting tumors versus control organs. […] An anti-phage antibody was used for staining H&E staining, with the corresponding fluorescence-based immunostaining, are shown in tumors (FIG. 5A). Tumor-bearing mice received CVRAC phage, CVAAC phage, or insertless control phage as indicated. Cohorts of tumor-bearing mice (n=5 mice/group) were used. A representative experiment is shown. Scale bar, 100 μm. (FIG. 5B) Treatment of tumor-bearing mice with peptides and peptidomimetics. Balb/c mice bearing EF43.fgf-4-derived tumors were divided into size-matched cohorts (n=7 mice/group); individual tumor volumes are represented before (black circles) and after (white circles). Peptides and peptidomimetics were administered at 750 μg/mouse/dose for 5 days. Shown are mean tumor volumes±SEM.\nSelective phage homing to tumors was evaluated as described (Hajitou et al., 2006; Arap et al., 1998). […] Each cohort of mice (n=3 per experiment) with size-matched tumors received a set of test and control phage clones. After 6 h, tumor-bearing mice were perfused through the heart with 20 ml of PBS containing 4% paraformaldehyde (PFA). […] For experimental therapy, Balb/c mice bearing EF43.fgf-4-derived tumors were established, and tumor volumes were determined as described (Arap et al., 1998; Hajitou et al., 2006; Ciardiello et al., 1999). […]"}, "[3]": {"biological_target": "binding of EGF to the EGFR (Homo sapiens, UniProt P01133)", "sequence (P01133 971-1023 limits assumed)": "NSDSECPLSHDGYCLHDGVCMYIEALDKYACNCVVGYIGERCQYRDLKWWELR", "assay": "Displacement of EGF from immobilized EGFR (FIG. 6A)", "settings": "D(CARVC) from 30 to 1,000 mM, cetuximab 12 nM positive control", "text": "(§4) The EGFR was coated onto 96-well plates at decreasing concentrations. […] D(CAAVC (SEQ ID NO:8)) was used as a negative peptidomimetic control at the same concentrations (circles). […] Bars represent mean±SEM.\n(§5) Decreasing molar concentrations of EGFR were immobilized in vitro, after which the native ligand (EGF or TGFα) was used to establish the baseline for the binding of EGF to the EGFR, or of TGFα to the EGFR."}, "[4]": {"biological_target": "binding of TGFα to the EGFR (Homo sapiens, UniProt P01135)", "sequence (P01135 40-89 limits assumed)": "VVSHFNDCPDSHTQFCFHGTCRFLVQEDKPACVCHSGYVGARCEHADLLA", "assay": "Displacement of TGFα from immobilized EGFR (FIG. 6B)", "settings": "increasing molar concentrations", "text": "as §4, §5"}, "[5]": {"test_system": "polyclonal anti-CVRAC antibodies", "assay": "ELISA recognition of peptides by polyclonal anti-CVRAC antibodies (FIG. 4B)", "assay_type": "binding, rabbit", "text": "as §1\nRabbits were immunized with KLH-conjugated CVRAC and a purified antibody was obtained. […] The capacity of rabbit IgG against CVRAC to recognize CVRAC, D(CARVC), and EGFR was measured by ELISA.\nas §2"}},
  "data": [
    {"substance": "D(CARVC)", "values": [
      {"measurement": "binding of synthetic peptide to cetuximab", "setting": "cetuximab", "result": "retained binding activity"},
      {"measurement": "interactions by NMR-spectroscopy", "setting": "[1]", "result": "Low-affinity interactions (micromolar range)"},
      {"measurement": "cell proliferation / viability", "setting": "HN5 tumor cells; HN5, MTT, 120 h, increasing concentrations, FIG. 4C", "result": "proliferated much less"},
      {"measurement": "activity on an equimolar basis compared with CVRAC", "setting": "HN5 tumor cells; prolonged (120 h) functional assay", "result": "more potent"},
      {"measurement": "EGF-induced tyrosine phosphorylation of the EGFR", "setting": "EGFR", "result": "effectively inhibited"},
      {"measurement": "EGF-induced phosphorylation of ERK", "setting": "ERK", "result": "inhibit"},
      {"measurement": "EGF-induced phosphorylation of AKT", "setting": "AKT", "result": "inhibit"},
      {"measurement": "EGF-induced phosphorylation of p38", "setting": "p38", "result": "not"},
      {"measurement": "tumor volume", "setting": "[2]", "result": "550±50", "unit": "mm^3"},
      {"measurement": "displacement of EGF from the EGFR", "setting": "[3]", "result": "concentration-dependent effect"},
      {"measurement": "displacement of TGFα from the EGFR", "setting": "[4]", "result": "concentration-dependent displacement"},
      {"measurement": "recognition by polyclonal anti-CVRAC antibodies", "setting": "[5]", "result": "recognized"}
    ]}
  ]
}
